For series [1], the system named is Recombinant Escherichia coli strains with the rec A genetic pathway. Nature of the series: Fluorescent signal of rec A recombinant strains exposed to dimethyl sulfate solution, immobilized versus not immobilized. It counts as cell-based. The following applies: 50 mg/L solution of dimethyl sulfate.
Series [2] deals with 29 recombinant Escherichia coli strains carrying plasmids with different genetic pathways. Briefly: In-situ gaseous exposure genotoxicity detection with hydrogel beads containing immobilized recombinant Escherichia coli strains. It is filed as cell-based. The source says:
Embodiment 5: Immobilization of 29 recombinant Escherichia coli strains carrying plasmids with different genetic pathways by hydrogel beads for genotoxicity detection of pollutants, including DNA damage, DNA repair, and oxidative stress: • (1) The nutrient in the core was a modified M9 medium, including MgCl2, CaCl2), NaCl, NH4Cl, Tris-HCl (pH-7.4) buffer, and glucose, to ensure the continued survival of the recombinant Escherichia coli strains when exposed at the air-liquid interface. • (2) The hydrogel beads containing immobilized 29 recombinant Escherichia coli strains, were assembled in a specially designed gaseous exposure system. Different concentrations (ranging from 20 to 500 mg/m^3) of gaseous methanesulfonic acid methyl ester were introduced into the exposure system for simultaneous exposure. […] In summary, a rapid analysis of the genotoxicity fingerprint of gaseous methanesulfonic acid methyl ester was conducted from the perspective of in-situ exposure.

Setting [3] is: 20 to 500 mg/m^3, as exposure concentration increased.

Each structure is given as a SMILES string. Structures can show the parent of a compound that is named as a salt.

From patent publication US20250115894A1, “Three-dimensional model of exposed microbial membranes at gas-liquid interface and preparation method thereof” (priority 2023, published 2025) come the findings set out here.

As to `COS(=O)(=O)OC` [dimethyl sulfate], in series [1], the “Fluorescent signals of rec A strains immobilized in hydrogel beads compared to not immobilized” value was “stronger fluorescent signals”.
For `COS(C)(=O)=O` [methanesulfonic acid methyl ester], in series [2] (20 to 500 mg/m^3), the “Ina A gene expression (SOS response)” value is “downregulation”, the “pol B gene pathway expression (DNA damage/repair)” value is recorded as “significant upregulation”, the “rec A gene pathway expression (DNA damage/repair)” value is “significant upregulation” and the “rec N gene pathway expression (DNA damage/repair)” value is on record as “significant upregulation”. The “sox R gene expression (SOS response)” value in series [2] (20 to 500 mg/m^3) was “downregulation”. In series [2] (setting [3]), the “Kat G gene expression (oxidative stress)” value is “significant upregulation” and the “ahp C gene expression (oxidative stress)” value is reported as “significant upregulation”.
